Measured values from US20250230193A1, “CYCLIC COMPOUND HAVING SELECTIVE KRAS INHIBITORY EFFECT ON HRAS AND NRAS” (CHUGAI SEIYAKU KABUSHIKI KAISHA, priority 2022, published 2025).
Where a SMILES comes first, the peptide text is derived from it. Bridges are numbered along the chain shown (N, C = ends). [ ]: non-standard residue; d: D form. hPhe(3-Cl-4-CF3) = N[C@@H](CCc1ccc(C(F)(F)F)c(Cl)c1)C(=O)O; NPrPhe(4-CF3) = CCCN[C@@H](Cc1ccc(C(F)(F)F)cc1)C(=O)O; NMeGly(cPent) = CN[C@H](C(=O)O)C1CCCC1; Hyp = O=C(O)[C@@H]1C[C@@H](O)CN1; NMeL = CN[C@@H](CC(C)C)C(=O)O; Ac5c = NC1(C(=O)O)CCCC1; Aze = O=C(O)[C@@H]1CCN1; Sar = CNCC(=O)O

Columns and labels:
[1] = molecular target: GDP-bound NRAS wild-type protein (Homo sapiens, UniProt P01111); experiment: Binding to NRAS by surface plasmon resonance (SPR), Single Cycle Kinetics; settings: for NRAS/KRAS (ratio of KD value with respect to NRAS to KD value with respect to KRAS): GDP-bound NRAS wild-type vs GDP-bound KRAS wild-type
GDP-bound NRAS wild-type protein, sequence (P01111 whole entry): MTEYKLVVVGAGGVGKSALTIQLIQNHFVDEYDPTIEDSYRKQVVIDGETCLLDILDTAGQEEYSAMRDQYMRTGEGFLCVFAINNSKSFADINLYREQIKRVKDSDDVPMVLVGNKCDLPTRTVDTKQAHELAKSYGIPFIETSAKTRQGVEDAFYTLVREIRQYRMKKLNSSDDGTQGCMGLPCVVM

[2] = molecular target: GDP-bound HRAS wild-type protein (Homo sapiens, UniProt P01112); experiment: Binding to HRAS by surface plasmon resonance (SPR), Single Cycle Kinetics; settings: for HRAS/KRAS (ratio of KD value with respect to HRAS to KD value with respect to KRAS): GDP-bound HRAS wild-type vs GDP-bound KRAS wild-type
GDP-bound HRAS wild-type protein, sequence (P01112 whole entry): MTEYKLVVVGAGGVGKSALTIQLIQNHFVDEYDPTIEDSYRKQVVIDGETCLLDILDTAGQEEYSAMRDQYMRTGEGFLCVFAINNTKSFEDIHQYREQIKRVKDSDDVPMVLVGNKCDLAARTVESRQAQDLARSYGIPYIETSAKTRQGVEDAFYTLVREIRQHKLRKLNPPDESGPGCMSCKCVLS

[3] = KD ratio NRAS/KRAS, class symbols
[4] = KD ratio HRAS/KRAS, class symbols

## CCO[C@@H]1C[C@H]2C(=O)NC3(CCC3)C(=O)N(C)[C@@H](C3CCCC3)C(=O)N(C)[C@H](C(=O)N3CCOCC3)CC(=O)N(C)[C@@H](Cc3ccccc3F)C(=O)N[C@@H]([C@@H](C)CC)C(=O)N(C)CC(=O)N(C)[C@H]3CCCCCN(C3=O)[C@@H](Cc3ccc(C(F)(F)F)cc3)C(=O)N(C)CC(=O)N[C@@H](CCc3cc(F)c(C(F)(F)F)c(F)c3)C(=O)N2C1 [PP0926]
[1]; KD ratio, SPR
  NRAS/KRAS (ratio of KD value with respect to NRAS to KD value with respect to KRAS): B (a compound having 3 or more and less than 10 is denoted as B)
[2]; KD ratio, SPR
  HRAS/KRAS (ratio of KD value with respect to HRAS to KD value with respect to KRAS): B (a compound having 3 or more and less than 10 is denoted as B)

## CCC(CC)[C@H]1C(=O)N(C)[C@H](C(=O)N(C)C)CC(=O)N(C)[C@@H](COC)C(=O)N[C@@H]([C@@H](C)CC)C(=O)N(C)CC(=O)N(C)[C@H]2C/C=C\CCN(C2=O)[C@@H](Cc2ccc(C)cc2)C(=O)N(C)CC(=O)N[C@@H](CCc2ccc(C(F)(F)F)c(Cl)c2)C(=O)N2CCCCC[C@H]2C(=O)NC2(CC(C)(C)C2)C(=O)N1C [PP2966]
[1]; [3]
  NRAS/KRAS (ratio of KD value with respect to GDP-bound NRAS wild-type protein to KD value with respect to KRAS): A (a compound having 10 or more and less than 20 is denoted as A)
[2]; [4]
  HRAS/KRAS (ratio of KD value with respect to GDP-bound HRAS wild-type protein to KD value with respect to KRAS): A (a compound having 10 or more and less than 20 is denoted as A)

## CCCN1C(=O)[C@@H]2CCN2C(=O)CN(C)C(=O)[C@H]([C@@H](C)CC)NC(=O)[C@H](CC(C)C)N(C)C(=O)C[C@@H](C(=O)N(C)C)NC(=O)[C@H](C2CCCC2)N(C)C(=O)C2(CCCC2)NC(=O)[C@@H]2C[C@@H](OCC)CN2C(=O)[C@H](CCc2ccc(C(F)(F)F)c(Cl)c2)NC(=O)CN(C)C(=O)[C@@H]1Cc1ccc(C(F)(F)F)cc1 [PP0389] ([NMeL]I[Sar][Aze][NPrPhe(4-CF3)][Sar][hPhe(3-Cl-4-CF3)][Hyp](Et)[Ac5c][NMeGly(cPent)]D-NMe2; lactam N-11)
[1]; KD ratio NRAS/KRAS, SPR
  NRAS/KRAS (ratio of KD for GDP-bound NRAS wild-type to KD for KRAS): C (A compound having a KD ratio of 0.1 or more and less than 3 is denoted as C)
[2]; KD ratio HRAS/KRAS, SPR
  HRAS/KRAS (ratio of KD for GDP-bound HRAS wild-type to KD for KRAS): B (a compound having 3 or more and less than 10 is denoted as B)

## CC[C@H](C)[C@@H]1NC(=O)[C@H](C2CCC2)N(C)C(=O)C[C@@H](C(=O)N(C)CC)N(C)C(=O)[C@H](C2CCCC2)N(C)C(=O)C2(CCC2)NC(=O)[C@@H]2C[C@H](C)CN2C(=O)[C@H](CCc2ccc(C(F)(F)F)c(OC)c2)NC(=O)CN(C)C(=O)[C@H](Cc2ccc(C(F)(F)F)cc2)N2CC/C=C\C[C@@H](C2=O)N(C)C(=O)CN(C)C1=O [PP2071]
[1]; SPR
  NRAS/KRAS (ratio of KD value with respect to NRAS to KD value with respect to KRAS): A (a compound having 10 or more and less than 20 is denoted as A)
[2]; SPR
  HRAS/KRAS (ratio of KD value with respect to HRAS to KD value with respect to KRAS): A (a compound having 10 or more and less than 20 is denoted as A)

## CCCOC[C@H]1C(=O)N[C@@H]([C@@H](C)CC)C(=O)N(C)CC(=O)N(C)[C@H]2C/C=C\CCN(C2=O)[C@@H](Cc2ccc(C)cc2)C(=O)N(C)CC(=O)N[C@@H](CCc2cc(F)c(C(F)(F)F)c(F)c2)C(=O)N2C[C@H](OCC)C[C@H]2C(=O)NC2(CC(C)(C)C2)C(=O)N(C)[C@@H](CC2CCC2)C(=O)N(C)[C@H](C(=O)N(C)C)CC(=O)N1C [PP2752]
[1]; [3]
  NRAS/KRAS (ratio of KD value with respect to GDP-bound NRAS wild-type protein to KD value with respect to KRAS): A (a compound having 10 or more and less than 20 is denoted as A)
[2]; [4]
  HRAS/KRAS (ratio of KD value with respect to GDP-bound HRAS wild-type protein to KD value with respect to KRAS): A (a compound having 10 or more and less than 20 is denoted as A)

## CCO[C@@H]1C[C@H]2C(=O)NC3(CC(C)(C)C3)C(=O)N(C)[C@@H](CC3CCC3)C(=O)N(C)[C@H](C(=O)N(C)C)CC(=O)N(C)[C@@H](COC)C(=O)N[C@@H]([C@@H](C)CC)C(=O)N(C3CC3)CC(=O)N(C)[C@H]3C/C=C\CCN(C3=O)[C@@H](Cc3ccc(C(F)(F)F)cc3)C(=O)N(C)CC(=O)N[C@@H](CCc3ccc(C(F)(F)F)c(OC)c3)C(=O)N2C1 [PP2771]
[1]; [3]
  NRAS/KRAS (ratio of KD value with respect to GDP-bound NRAS wild-type protein to KD value with respect to KRAS): AA (a compound having 20 or more is denoted as AA)
[2]; [4]
  HRAS/KRAS (ratio of KD value with respect to GDP-bound HRAS wild-type protein to KD value with respect to KRAS): A (a compound having 10 or more and less than 20 is denoted as A)

## CC[C@H](C)[C@@H]1NC(=O)[C@H](CC)N(C)C(=O)C[C@@H](C(=O)N(C)C)N(C)C(=O)[C@H](C2CCCC2)N(C)C(=O)C2(CCC2)NC(=O)[C@@H]2CCCCN2C(=O)[C@H](CCc2cc(F)c(C(F)(F)F)c(F)c2)NC(=O)CN(C)C(=O)[C@H](Cc2ccc(C(F)(F)F)cc2)N2CCCCC[C@@H](C2=O)N(C)C(=O)CN(C)C1=O [PP0655]
[1]; KD ratio NRAS/KRAS, SPR
  NRAS/KRAS (ratio of KD value with respect to GDP-bound NRAS wild-type protein to KD value with respect to KRAS): B (a compound having 3 or more and less than 10 is denoted as B)
[2]; KD ratio HRAS/KRAS, SPR
  HRAS/KRAS (ratio of KD value with respect to GDP-bound HRAS wild-type protein to KD value with respect to KRAS): B (a compound having 3 or more and less than 10 is denoted as B)

## CCO[C@@H]1C[C@H]2C(=O)NC3(CC(C)(C)C3)C(=O)N(C)[C@@H](C(CC)CC)C(=O)N(C)[C@H](C(=O)N(C)C)CC(=O)N(C)[C@H]3CCCC/C=C/c4ccc(cc4)C[C@@H](C(=O)N(C)CC(=O)N[C@@H](CCc4ccc(Cl)c(Cl)c4)C(=O)N2C1)N1CC/C=C\C[C@@H](C1=O)N(C)C(=O)CN(C)C(=O)[C@H]([C@@H](C)CC)NC3=O [PP3045]
[1]; KD ratio NRAS/KRAS, SPR, GDP-bound wild-type proteins
  NRAS/KRAS (ratio of KD value with respect to GDP-bound NRAS wild-type protein to KD value with respect to KRAS): AA (a compound having 20 or more is denoted as AA)
[2]; KD ratio HRAS/KRAS, SPR, GDP-bound wild-type proteins
  HRAS/KRAS (ratio of KD value with respect to GDP-bound HRAS wild-type protein to KD value with respect to KRAS): A (a compound having 10 or more and less than 20 is denoted as A)
